The subject of data set [1] is Lambsquarter (Chenopodium album). Nature of the data set: Preemergence herbicidal activity, soil spray. The class given is in vivo. The following applies: Chenopodium album, pre-emergence, 504 h; Table 5; rate 560 ppm; visual score after 3 weeks, 100 complete kill or no germination; read-out: Pre-emergent % control CHEAL. From the text:
(§1) Seeds of the desired test plant species were planted in a soil matrix prepared by mixing a loam soil (43 percent silt, 19 percent clay, and 38 percent sand, with a pH of about 8.1 and an organic matter content of about 1.5 percent) and sand in a 70 to 30 ratio. The soil matrix was contained in plastic pots with a surface area of 113 square centimeters. When required to ensure good germination and healthy plants, a fungicide treatment and/or other chemical or physical treatment was applied. A weighed amount, determined by the highest rate to be tested, of each test compound was placed in a 20 mL glass vial and was dissolved in 4 mL of a 97:3 v/v (volume/volume) mixture of acetone and dimethyl sulfoxide to obtain concentrated stock solutions. […] The stock solutions obtained were diluted with a 99.9:0.1 mixture of water and Tween® 155 surfactant to obtain application solutions of known concentration. The solutions containing the highest concentration to be tested were prepared by diluting 2 mL aliquots of the stock solution with 15 mL of the mixture and lower concentrations were prepared by serial dilution of the stock solution. A 2.5 mL aliquot of each solution of known concentration was sprayed evenly onto the soil surface (113 sq. cm) of each seeded pot using a Cornwall 5.0 mL glass syringe fitted with a TeeJet TN-3 hollow cone nozzle to obtain thorough coverage of the soil in each pot. Control pots were sprayed in the same manner with the aqueous mixture. The treated pots and control pots were placed in a greenhouse maintained with an approximate 15 hr photoperiod and temperatures of about 23-29° C. during the day and 22-28° C. during the night. Nutrients and water were added on a regular basis and supplemental lighting was provided with overhead metal halide 1000-Watt lamps as necessary. The water was added by top-irrigation.

The test system of data set [2] is Pigweed (redroot) (Amaranthus retroflexus). Nature of the data set: Preemergence herbicidal activity, soil spray. The format is in vivo. The following applies: Amaranthus retroflexus, pre-emergence, 504 h, Table 5, visual score after 3 weeks, read-out: Pre-emergent % control AMARE; for pest or weed control at 560 ppm: rate 560 ppm.
Text: as §1

Data set [3] relates to Crabgrass(large) (Digitaria sanguinalis). Nature of the data set: Preemergence herbicidal activity, soil spray. The following applies: Digitaria sanguinalis, pre-emergence, 504 h, Table 5, visual score after 3 weeks, read-out: Pre-emergent % control DIGSA; for pest or weed control at 560 ppm: rate 560 ppm. The format is in vivo.
Text: as §1

In data set [4] the test system is Giant Foxtail (Setaria faberi). Nature of the data set: Preemergence herbicidal activity, soil spray. The following applies: Setaria faberi, pre-emergence, 504 h, Table 5, visual score after 3 weeks, read-out: Pre-emergent % control SETFA; for pest or weed control at 560 ppm: rate 560 ppm. The format is in vivo.
Text: as §1

The test system of data set [5] is Lambsquarter (Chenopodium album). As to the kind of experiment: Postemergence herbicidal activity, greenhouse spray. The following applies: Chenopodium album, post-emergence, 336 h, visual score after 2 weeks, read-out: Post-emergent % control CHEAL; for pest or weed control at 250 ppm: rate 250 ppm; for pest or weed control at 125 ppm: rate 125 ppm; for pest or weed control at 500 ppm: rate 500 ppm. The class given is in vivo. As for the experimental part:
(§2) When required to ensure good germination and healthy plants, a fungicide treatment and/or other chemical or physical treatment was applied. The plants were grown for 7-21 days in a greenhouse with an approximate 15 hr photoperiod which was maintained at about 23-29° C. during the day and 22-28° C. during the night. Nutrients and water were added on a regular basis and supplemental lighting was provided with overhead metal halide 1000-Watt lamps as necessary. The plants were employed for testing when they reached the first or second true leaf stage. A weighed amount, determined by the highest rate to be tested, of each test compound was placed in a 20 mL glass vial and was dissolved in 4 mL of a 97:3 v/v (volume/volume) mixture of acetone and dimethyl sulfoxide (DMSO) to obtain concentrated stock solutions. […] The concentrated stock solutions obtained were diluted with an aqueous mixture containing acetone, water, isopropyl alcohol, DMSO, At plus 411 F crop oil concentrate, and Triton X-155 surfactant in a 48.5:39:10:1.5:1.0:0.02 v/v ratio to obtain spray solutions of known concentration. The solutions containing the highest concentration to be tested were prepared by diluting 2 mL aliquots of the stock solution with 13 mL of the mixture and lower concentrations were prepared by serial dilution of the stock solution. Approximately 1.5 mL aliquots of each solution of known concentration were sprayed evenly onto each of the test plant pots using a DeVilbiss atomizer driven by compressed air pressure of 2 to 4 psi (140 to 280 kiloPascals) to obtain thorough coverage of each plant. Control plants were sprayed in the same manner with the aqueous mixture. […] The treated plants and control plants were placed in a greenhouse as described above and watered by sub-irrigation to prevent wash-off of the test compounds.

In data set [6] the test system is Barnyardgrass (Echinochloa crus-galli). The data set is described as above. The following applies: Echinochloa crus-galli, post-emergence, 336 h, visual score after 2 weeks, read-out: Post-emergent % control ECHCG; for pest or weed control at 250 ppm: rate 250 ppm; for pest or weed control at 125 ppm: rate 125 ppm; for pest or weed control at 500 ppm: rate 500 ppm. The format is in vivo. The protocol:
as §2

Data set [7] has as its system Yellow nutsedge (Cyperus esculentus). Described as above. The format is in vivo. The following applies: Cyperus, post-emergence, 336 h, visual score after 2 weeks, read-out: Post-emergent % control CYPES; for pest or weed control at 250 ppm: rate 250 ppm; for pest or weed control at 125 ppm: rate 125 ppm; for pest or weed control at 500 ppm: rate 500 ppm. The protocol: as §2

Data set [8] has as its system Cocklebur (Xanthium strumarium). The data set is described as above. The class given is in vivo. The following applies: Xanthium strumarium, post-emergence, 336 h, visual score after 2 weeks, read-out: Post-emergent % control XANST; for pest or weed control at 250 ppm: rate 250 ppm; for pest or weed control at 125 ppm: rate 125 ppm; for pest or weed control at 500 ppm: rate 500 ppm, 0 no injury, 100 complete kill. As for the experimental part: as §2

Like-named read-outs stand apart in the source and are kept apart here.

`CCc1ccc(-c2cc(N)c(Cl)c(C(=O)OC)n2)cc1` [Compound 30, Methyl 4-amino-3-chloro-6-(4-ethylphenyl)pyridine-2-carboxylate]: the melting point turned out to be 119 °C. Moreover, the pest or weed control at 560 ppm in [1] came to 90%. Also, the pest or weed control at 560 ppm in [2] came to 100%. Besides, the pest or weed control at 560 ppm in data set [3] stood at 100%. For the same molecule, the pest or weed control at 560 ppm in data set [4] amounted to 70%.
`Nc1c(F)c(-c2ccc(Cl)cc2Cl)nc(C(=O)O)c1Cl` [Compound 199, 4-Amino-3-chloro-5-fluoro-6-(2,4-dichlorophenyl)pyridine-2-carboxylic acid]: the melting point was 152 °C. The pest or weed control at 250 ppm in data set [5] (Table 1) amounted to 100%. Besides, the pest or weed control at 125 ppm in data set [5] (Table 2) came out at 100%. Besides, the pest or weed control at 250 ppm in data set [6] (Table 1) turned out to be 85%. Further, the pest or weed control at 125 ppm in data set [6] (Table 2) turned out to be 80%. For the same molecule, the pest or weed control at 250 ppm in [7] (Table 1) came out at 95%. For the same molecule, the pest or weed control at 125 ppm in data set [7] (Table 2) came to 90%. The pest or weed control at 250 ppm in data set [8] (Table 1) came to 100%. Moreover, in [8] (Table 2), the pest or weed control at 125 ppm amounted to 100%.
As for `COC(=O)c1nc(-c2ccc(C(F)(F)F)cc2)c(F)c(N)c1F` [Compound 94, Methyl 4-amino-3,5-difluoro-6-[4-(trifluoromethyl)phenyl]pyridine-2-carboxylate], the melting point lay in the range of 177 to 178 °C. Also, the pest or weed control at 500 ppm in data set [5] (Table 1) came out at 100%. Besides, the pest or weed control at 500 ppm in [6] (Table 1) was determined as 90%. Besides, in [7] (Table 1), the pest or weed control at 500 ppm was determined as 90%. The pest or weed control at 500 ppm in [8] (Table 1) is 100%.
The molecule `Nc1cc(-c2ccc(Cl)nc2)nc(C(=O)O)c1Cl` [Compound 225, 4-Amino-3-chloro-6-(6-chloro-3-pyridinyl)pyridine-2-carboxylic acid] gave a melting point of 110 to 114 °C. Besides, the pest or weed control at 125 ppm in [5] (Table 1) is 70%. Also, the pest or weed control at 125 ppm in [6] (Table 1) came to 40%. The pest or weed control at 125 ppm in [7] (Table 1) was found to be 60%. The pest or weed control at 125 ppm in [8] (Table 1) came out at 90%.
For `Nc1cc(-c2ccc(Cl)c(C(F)(F)F)c2)nc(C(=O)O)c1Cl` [Compound 179, 4-Amino-3-chloro-6-(4-chloro-3-(trifluoromethyl)phenyl)pyridine-2-carboxylic acid], the melting point was 176 °C. Further, the pest or weed control at 560 ppm in [1] was 100%. The pest or weed control at 560 ppm in data set [2] is 100%. The pest or weed control at 560 ppm in [3] was found to be 98%. Moreover, the pest or weed control at 560 ppm in [4] was 98%.
In the case of `Nc1cc(-c2cc3ccccc3o2)nc(C(=O)O)c1Cl` [Compound 219, 4-Amino-6-(2-benzofuranyl)-3-chloropyridine-2-carboxylic acid], the melting point stood at 151 °C. Moreover, in [5] (Table 1), the pest or weed control at 250 ppm came out at 100%. Also, the pest or weed control at 250 ppm in [6] (Table 1) stood at 80%. For the same molecule, in data set [7] (Table 1), the pest or weed control at 250 ppm was 0%. Besides, the pest or weed control at 250 ppm in data set [8] (Table 1) is 100%.
`COC(=O)c1nc(-c2ccc3c(c2)CCO3)c(F)c(N)c1Cl` [Compound 85, Methyl 4-amino-3-chloro-5-fluoro-6-(2,3-dihydro-5-benzofuranyl)pyridine-2-carboxylate] displayed a melting point of 120 °C. Also, the pest or weed control at 250 ppm in [5] (Table 1) stood at 100%. Besides, in data set [6] (Table 1), the pest or weed control at 250 ppm was 99%. For the same molecule, the pest or weed control at 250 ppm in [7] (Table 1) worked out at 70%. For the same molecule, the pest or weed control at 250 ppm in data set [8] (Table 1) came to 100%.
Molecule `COC(=O)c1nc(-c2ccc(C(F)(F)F)cc2)c(Cl)c(N)c1Cl` [Compound 44, Methyl 4-amino-3,5-dichloro-6-[4-(trifluoromethyl)phenyl]pyridine-2-carboxylate] registered a melting point of 110 to 111 °C. Moreover, the pest or weed control at 250 ppm in [5] (Table 1) stood at 80%. The pest or weed control at 250 ppm in data set [6] (Table 1) is 30%. Also, in data set [7] (Table 1), the pest or weed control at 250 ppm was 70%. In addition, the pest or weed control at 250 ppm in [8] (Table 1) amounted to 100%.
Turning to `Nc1cc(-c2cc3ccccc3s2)nc(C(=O)O)c1Cl` [Compound 224, 4-Amino-3-chloro-6-(2-benzothienyl)pyridine-2-carboxylic acid], the melting point was found to be 176 °C. The pest or weed control at 125 ppm in data set [5] (Table 1) was determined as 100%. The pest or weed control at 125 ppm in data set [6] (Table 1) is 85%. Further, the pest or weed control at 125 ppm in data set [7] (Table 1) was determined as 30%. Moreover, the pest or weed control at 125 ppm in data set [8] (Table 1) came out at 100%.
Take `Nc1c(F)c(C(=O)O)nc(-c2ccc3c(c2)OCO3)c1F` [Compound 207, 4-Amino-3,5-difluoro-6-(3,4-methylenedioxyphenyl)pyridine-2-carboxylic acid]: the melting point lay within 174 to 175 °C. Besides, the pest or weed control at 140 ppm in [2] (rate 140 ppm) amounted to 100%. For the same molecule, in [3] (rate 140 ppm), the pest or weed control at 140 ppm is 95%. The pest or weed control at 140 ppm in data set [4] (rate 140 ppm) was 50%. Further, the pest or weed control at 125 ppm in [5] (Table 1) worked out at 70%. Besides, in data set [6] (Table 1), the pest or weed control at 125 ppm was 70%. Further, the pest or weed control at 125 ppm in [7] (Table 1) is 40%. Besides, in data set [8] (Table 1), the pest or weed control at 125 ppm stood at 90%.
Molecule `COC(=O)c1nc(-c2ccc3ccccc3c2)cc(N)c1Cl` [Compound 47, Methyl 4-amino-3-chloro-6-(2-naphthyl)pyridine-2-carboxylate] registered a melting point of 108 to 109 °C. For the same molecule, the pest or weed control at 500 ppm in data set [5] (Table 1) came out at 90%. For the same molecule, in data set [6] (Table 1), the pest or weed control at 500 ppm is 80%. In addition, in [7] (Table 1), the pest or weed control at 500 ppm came out at 0%. In addition, in [8] (Table 1), the pest or weed control at 500 ppm came out at 90%.

By melting point is commonly meant the temperature of the solid-liquid transition.

The record behind these values is US6784137B2, “6-aryl-4-aminopicolinates and their use as herbicides” (Dow AgroSciences LLC, priority 2001, dated 2004).
